Assay results from patent US5116974A, “3-carbalkoxyamino-5-aminoacyl-5H-dibenz[b,f]azepines, and methods for making” (Arzneimittelwerk Dresden GmbH, priority 1989, dated 1992).

Columns and labels:
[1] = tested on: dogs, 24 hours after a 2-step coronary ligature; experiment: 2-step coronary ligature in dogs (Harris model); assay type: in vivo, dog
From the text: It is also emphasized that, in comparative investigations of the 2-step coronary ligature in dogs (Harris model), the new compounds of formula I have an advantageously sustained duration of action (see Table 1).

[2] = tested on: aconitine arrhythmia in female Wistar rats; assay type: in vivo, rat (female Wistar); conditions: for ED73 i.v. (aconitine, rat): dose which inhibits aconitine arrhythmia up to the occurrence of isolated ventricular extrasystoles: female Wistar rats, Probit regression, confidence interval p=0.05 in parentheses; for Q = LD50 i.v./ED73 i.v. (therapeutic breadth): rat, ratio of LD50 to ED73 (aconitine model)
Protocol: ED73 i.v. =the dose in mg/kg, which inhibits aconitine arrhythmia in female Wistar rats after i.v. administration of the test substance up to the occurrence of isolated ventricular extrasystolea (K. Femmer et al., Pharmazie 31, page 36 (1976). The data is analyzed by the Probit regression analysis with a confidence interval of p=0.05 (values given in parentheses).

[3] = in vivo; conditions: rat, iv, male or female Wistar rats, i.v. tail vein, Probit regression, confidence interval p=0.05 in parentheses, read-out: LD50 i.v. (acute tox., rat)
From the text: LD50 i.v. =lethal dose in mg/kg for 50% of the experimental animals of an orientating acute toxicity test on male or female Wistar rats of our own breed, i.v. administration in the tail vein, 3-4 dosages, 10 animals per group. Data analyzed by the Probit regression analysis with a confidence interval of p=0.05 (values given in parentheses).

[4] = Solubility; assay type: physicochemical

## CCOC(=O)Nc1ccc2c(c1)N(C(=O)CN(C)C)c1ccccc1CC2 [Bonnecor ®, 3-carbethoxyamino-5-dimethylaminoacetyl-10,11-dihydro-5H-dibenz[b,f]azepine, reference compound]
[1]; at eff. dose 2.0 mg/kg i.v.
  duration of action (dog, Harris): 15 min
[2]
  ED73 i.v. (aconitine, rat): dose which inhibits aconitine arrhythmia up to the occurrence of isolated ventricular extrasystoles: 0.28 mg/kg
  Q = LD50 i.v./ED73 i.v. (therapeutic breadth): 39
[3]
  LD50: 11 mg/kg

## CCN(CC)CC(=O)Nc1c(C)cccc1C [Lidocaine, lidocaine, reference compound]
[1]; at eff. dose 6.0 mg/kg i.v.
  duration of action (dog, Harris): 10 min

## Cc1cccc(C)c1OCC(C)N (stereo not shown) [Mexiletin, mexiletin, reference compound]
[2]
  ED73 i.v. (aconitine, rat): dose which inhibits aconitine arrhythmia up to the occurrence of isolated ventricular extrasystoles: 15 mg/kg
[3]
  LD50: 41 mg/kg

## CCOC(=O)Nc1ccc2c(c1)N(C(=O)CCN1CCOCC1)c1ccccc1S2 [Morazicine, morazicine, reference compound]
[1]; at eff. dose 2.0 mg/kg i.v.
  duration of action (dog, Harris): 15 min
[2]
  ED73 i.v. (aconitine, rat): dose which inhibits aconitine arrhythmia up to the occurrence of isolated ventricular extrasystoles: 1.1 mg/kg
  Q = LD50 i.v./ED73 i.v. (therapeutic breadth): 10
[3]
  LD50: 11 mg/kg

## CCOC(=O)Nc1ccc2c(c1)N(C(=O)CNCc1ccccc1)c1ccccc1CC2 [No. 1, 3-carbethoxyamino-b 5-benzylaminoacetyl-10,11-dihydro-5H-dibenz[b,f]azepine]
[4]
  solubility of the base in dilute acids (in words): not very soluble in dilute acids
[2]
  ED73 i.v. (aconitine, rat): dose which inhibits aconitine arrhythmia up to the occurrence of isolated ventricular extrasystoles: 0.79 (0.53-1.2) mg/kg
  Q = LD50 i.v./ED73 i.v. (therapeutic breadth): 16
[3]
  LD50: 13 mg/kg

## CCOC(=O)Nc1ccc2c(c1)N(C(=O)CNCCO)c1ccccc1CC2 [No. 2, 3-carbethoxyamino-5-(beta-oxyethylamino)acetyl-10,11-dihydro-5H-dibenz[b,f]azepine]
[1]; at eff. dose 2.0 mg/kg i.v.
  duration of action (dog, Harris): 60 min
[2]
  ED73 i.v. (aconitine, rat): dose which inhibits aconitine arrhythmia up to the occurrence of isolated ventricular extrasystoles: 0.19 mg/kg
  Q = LD50 i.v./ED73 i.v. (therapeutic breadth): 63
[3]
  LD50: 12 mg/kg

## CCNCC(=O)N1c2ccccc2CCc2ccc(NC(=O)OCC)cc21 [No. 3]
[1]; at eff. dose 1.0 mg/kg i.v.
  duration of action (dog, Harris): 60 min
[1]; at eff. dose 2.0 mg/kg i.v.
  duration of action (dog, Harris): 180 min
[2]
  ED73 i.v. (aconitine, rat): dose which inhibits aconitine arrhythmia up to the occurrence of isolated ventricular extrasystoles: 0.09 mg/kg
  Q = LD50 i.v./ED73 i.v. (therapeutic breadth): 107
[3]
  LD50: 9.6 mg/kg

## CCOC(=O)Nc1ccc2c(c1)N(C(=O)CNC(C)C)c1ccccc1CC2 [No. 4, 3-carbethoxyamino-5-isopropylamino-acetyl-10,11-dihydro-5H-dibenz[b,f]azepine]
[2]
  ED73 i.v. (aconitine, rat): dose which inhibits aconitine arrhythmia up to the occurrence of isolated ventricular extrasystoles: 0.71 mg/kg
  Q = LD50 i.v./ED73 i.v. (therapeutic breadth): 12
[3]
  LD50: 8.2 mg/kg

## CCCNCC(=O)N1c2ccccc2CCc2ccc(NC(=O)OCC)cc21 [No. 5, 3-carbethoxyamino-5-n-propylamino-acetyl-10,11-dihydro-5H-dibenz[b,f]azepine]
[2]
  ED73 i.v. (aconitine, rat): dose which inhibits aconitine arrhythmia up to the occurrence of isolated ventricular extrasystoles: 0.18 mg/kg
  Q = LD50 i.v./ED73 i.v. (therapeutic breadth): 34
[3]
  LD50: 6.1 mg/kg

## CCOC(=O)Nc1ccc2c(c1)N(C(=O)CNC(C)(C)C)c1ccccc1CC2 [No. 6, 3-carbethoxyamino-5-tertiary-butylamino-acetyl-10,11-dihydro-5H-dibenz[b,f]azepine]
[2]
  ED73 i.v. (aconitine, rat): dose which inhibits aconitine arrhythmia up to the occurrence of isolated ventricular extrasystoles: 0.35 mg/kg
  Q = LD50 i.v./ED73 i.v. (therapeutic breadth): 16
[3]
  LD50: 5.6 mg/kg

## CCCCNCC(=O)N1c2ccccc2CCc2ccc(NC(=O)OCC)cc21 [No. 7, 3-carbethoxyamino-5-n-butylamino-acetyl-10,11-dihydro-5H-dibenz[b,f]azepin]
[2]
  ED73 i.v. (aconitine, rat): dose which inhibits aconitine arrhythmia up to the occurrence of isolated ventricular extrasystoles: 0.29 mg/kg
  Q = LD50 i.v./ED73 i.v. (therapeutic breadth): 17
[3]
  LD50: 5 mg/kg

## CCOC(=O)Nc1ccc2c(c1)N(C(=O)CNC1CCCCC1)c1ccccc1CC2 [No. 8, 3-carbethoxyamino-5-cyclohexylamino-acetyl-10,11-dihydro-5H-dibenz[b,f]azepine]
[2]
  ED73 i.v. (aconitine, rat): dose which inhibits aconitine arrhythmia up to the occurrence of isolated ventricular extrasystoles: 0.25 mg/kg
  Q = LD50 i.v./ED73 i.v. (therapeutic breadth): 15
[3]
  LD50: 3.7 mg/kg

## CCCCCCNCC(=O)N1c2ccccc2CCc2ccc(NC(=O)OCC)cc21 [No. 9]
[2]
  ED73 i.v. (aconitine, rat): dose which inhibits aconitine arrhythmia up to the occurrence of isolated ventricular extrasystoles: 0.90 mg/kg
  Q = LD50 i.v./ED73 i.v. (therapeutic breadth): 16
[3]
  LD50: 14 mg/kg

## CCOC(=O)Nc1ccc2c(c1)N(C(=O)CN)c1ccccc1CC2 [No. 10, 3-carbethoxyamino-5-amino-acetyl-10,11-dihydro-5H-dibenz[b,f]azepine]
[2]
  ED73 i.v. (aconitine, rat): dose which inhibits aconitine arrhythmia up to the occurrence of isolated ventricular extrasystoles: 0.20 mg/kg
  Q = LD50 i.v./ED73 i.v. (therapeutic breadth): 70
[3]
  LD50: 14 mg/kg

## CNCC(=O)N1c2ccccc2CCc2ccc(NC(=O)OC(C)C)cc21 [No. 11]
[2]
  ED73 i.v. (aconitine, rat): dose which inhibits aconitine arrhythmia up to the occurrence of isolated ventricular extrasystoles: 0.61 mg/kg
  Q = LD50 i.v./ED73 i.v. (therapeutic breadth): 25
[3]
  LD50: 15 mg/kg

## CC(C)OC(=O)Nc1ccc2c(c1)N(C(=O)CNCCO)c1ccccc1CC2 [No. 12]
[2]
  ED73 i.v. (aconitine, rat): dose which inhibits aconitine arrhythmia up to the occurrence of isolated ventricular extrasystoles: 0.51 mg/kg
  Q = LD50 i.v./ED73 i.v. (therapeutic breadth): 39
[3]
  LD50: 20 mg/kg

## CCNCC(=O)N1c2ccccc2CCc2ccc(NC(=O)OC(C)C)cc21 [No. 13, 3-carbisopropoxyamino-5-ethylamino-acetyl-10,11-dihydro-5H-dibenz[b,f]azepine]
[2]
  ED73 i.v. (aconitine, rat): dose which inhibits aconitine arrhythmia up to the occurrence of isolated ventricular extrasystoles: 0.47 mg/kg
  Q = LD50 i.v./ED73 i.v. (therapeutic breadth): 34
[3]
  LD50: 16 mg/kg

## CC(C)OC(=O)Nc1ccc2c(c1)N(C(=O)CNC(C)(C)C)c1ccccc1CC2 [No. 14]
[2]
  ED73 i.v. (aconitine, rat): dose which inhibits aconitine arrhythmia up to the occurrence of isolated ventricular extrasystoles: 0.18 mg/kg

## CNCC(=O)N1c2ccccc2CCc2ccc(NC(=O)OC)cc21 [No. 15]
[1]; at eff. dose 2.0 mg/kg i.v.
  duration of action (dog, Harris): 15 min
[2]
  ED73 i.v. (aconitine, rat): dose which inhibits aconitine arrhythmia up to the occurrence of isolated ventricular extrasystoles: 0.30 mg/kg
  Q = LD50 i.v./ED73 i.v. (therapeutic breadth): 67
[3]
  LD50: 20 mg/kg

## COC(=O)Nc1ccc2c(c1)N(C(=O)CNCCO)c1ccccc1CC2 [No. 16]
[2]
  ED73 i.v. (aconitine, rat): dose which inhibits aconitine arrhythmia up to the occurrence of isolated ventricular extrasystoles: 0.40 mg/kg
  Q = LD50 i.v./ED73 i.v. (therapeutic breadth): 90
[3]
  LD50: 36 mg/kg

## CCNCC(=O)N1c2ccccc2CCc2ccc(NC(=O)OC)cc21 [No. 17]
[1]; at eff. dose 2.0 mg/kg i.v.
  duration of action (dog, Harris): 15 min
[2]
  ED73 i.v. (aconitine, rat): dose which inhibits aconitine arrhythmia up to the occurrence of isolated ventricular extrasystoles: 0.95 mg/kg
  Q = LD50 i.v./ED73 i.v. (therapeutic breadth): 20
[3]
  LD50: 19 mg/kg

## CCOC(=O)Nc1ccc2c(c1)N(C(=O)CCNCCO)c1ccccc1CC2 [No. 18]
[1]; at eff. dose 2.0 mg/kg i.v.
  duration of action (dog, Harris): 60 min
[2]
  ED73 i.v. (aconitine, rat): dose which inhibits aconitine arrhythmia up to the occurrence of isolated ventricular extrasystoles: 0.85 mg/kg
  Q = LD50 i.v./ED73 i.v. (therapeutic breadth): 24
[3]
  LD50: 20 mg/kg

## CCOC(=O)Nc1ccc2c(c1)N(C(=O)CNC)c1ccccc1C=C2 [No. 19]
[2]
  ED73 i.v. (aconitine, rat): dose which inhibits aconitine arrhythmia up to the occurrence of isolated ventricular extrasystoles: 0.32 mg/kg
  Q = LD50 i.v./ED73 i.v. (therapeutic breadth): 34
[3]
  LD50: 11 mg/kg

## CCNCC(=O)N1c2ccccc2C=Cc2ccc(NC(=O)OCC)cc21 [No. 20, 3-carbethoxyamino-5-ethylamino-acetyl-acetyl-5H-dibenz[b,f]azepine]
[2]
  ED73 i.v. (aconitine, rat): dose which inhibits aconitine arrhythmia up to the occurrence of isolated ventricular extrasystoles: 0.40 mg/kg
  Q = LD50 i.v./ED73 i.v. (therapeutic breadth): 15
[3]
  LD50: 6.2 mg/kg

## CCNCCC(=O)N1c2ccccc2CCc2ccc(NC(=O)OCC)cc21 [No. 21, 3-carbethoxyamino-5-(β-ethylaminopropionyl)-10,11-dihydro-5H-dibenz[b,f]azepine]
[2]
  ED73 i.v. (aconitine, rat): dose which inhibits aconitine arrhythmia up to the occurrence of isolated ventricular extrasystoles: 0.42 mg/kg
  Q = LD50 i.v./ED73 i.v. (therapeutic breadth): 29
[3]
  LD50: 12 mg/kg

## CCOC(=O)Nc1ccc2c(c1)N(C(=O)CNC(C)c1ccccc1)c1ccccc1CC2 (stereo not drawn) [No. 22, 3-carbethoxyamino-5-(α-phenylethylamino)-acetyl-10,11-dihydro-5H-dibenz[b,f]azepine]
[2]
  ED73 i.v. (aconitine, rat): dose which inhibits aconitine arrhythmia up to the occurrence of isolated ventricular extrasystoles: 3.5 mg/kg
  Q = LD50 i.v./ED73 i.v. (therapeutic breadth): 9
[3]
  LD50: 31 mg/kg
